Test [1] is described as follows: Binding affinity against […] adrenergic receptor.
Assay in test [2]: as above
This is another data set of the same source.

As for `CN(C)CC1CC2c3ccccc3Cc3ccc(Cl)cc3N2O1` (centres undefined), the IC50 – broadly, the concentration needed to halve the response being measured – in test [1] was 871 nM. That is a sub-micromolar value. Take `CN(C)CC1CC2c3ccccc3Cc3ccncc3N2O1` (centres undefined): the IC50 in test [2] was less than 1000 nM.

As to `CN(C)CC1CC2c3cccnc3Cc3ccccc3N2O1` (centres undefined), in test [2], the IC50 was less than 1000 nM.

On to `CN(C)C[C@@H]1C[C@@H]2c3ccccc3Cc3ccccc3N2O1` [Dimethyl-[(2S,3aR)-1-(2,3,3a,8-tetrahydro-1-oxa-12b-aza-dibenzo[e,h]azulen-2-yl)methyl]-amine], for which the IC50 in test [1] is 1860 nM.

The values above are taken from BindingDB's records for doi:10.1016/s0960-894x(02)00796-5 (Janssen-Cilag, 2002).
